{"source": "patent US10220048B2", "about": "“Compositions and methods for treating ocular diseases” (Aerpio Therapeutics, Inc., priority 2013, dated 2019)", "key": {"HPTP-β": {"biological_target": "HPTP-β (Homo sapiens (Human), UniProt P23467)", "sequence (P23467 23-1997)": "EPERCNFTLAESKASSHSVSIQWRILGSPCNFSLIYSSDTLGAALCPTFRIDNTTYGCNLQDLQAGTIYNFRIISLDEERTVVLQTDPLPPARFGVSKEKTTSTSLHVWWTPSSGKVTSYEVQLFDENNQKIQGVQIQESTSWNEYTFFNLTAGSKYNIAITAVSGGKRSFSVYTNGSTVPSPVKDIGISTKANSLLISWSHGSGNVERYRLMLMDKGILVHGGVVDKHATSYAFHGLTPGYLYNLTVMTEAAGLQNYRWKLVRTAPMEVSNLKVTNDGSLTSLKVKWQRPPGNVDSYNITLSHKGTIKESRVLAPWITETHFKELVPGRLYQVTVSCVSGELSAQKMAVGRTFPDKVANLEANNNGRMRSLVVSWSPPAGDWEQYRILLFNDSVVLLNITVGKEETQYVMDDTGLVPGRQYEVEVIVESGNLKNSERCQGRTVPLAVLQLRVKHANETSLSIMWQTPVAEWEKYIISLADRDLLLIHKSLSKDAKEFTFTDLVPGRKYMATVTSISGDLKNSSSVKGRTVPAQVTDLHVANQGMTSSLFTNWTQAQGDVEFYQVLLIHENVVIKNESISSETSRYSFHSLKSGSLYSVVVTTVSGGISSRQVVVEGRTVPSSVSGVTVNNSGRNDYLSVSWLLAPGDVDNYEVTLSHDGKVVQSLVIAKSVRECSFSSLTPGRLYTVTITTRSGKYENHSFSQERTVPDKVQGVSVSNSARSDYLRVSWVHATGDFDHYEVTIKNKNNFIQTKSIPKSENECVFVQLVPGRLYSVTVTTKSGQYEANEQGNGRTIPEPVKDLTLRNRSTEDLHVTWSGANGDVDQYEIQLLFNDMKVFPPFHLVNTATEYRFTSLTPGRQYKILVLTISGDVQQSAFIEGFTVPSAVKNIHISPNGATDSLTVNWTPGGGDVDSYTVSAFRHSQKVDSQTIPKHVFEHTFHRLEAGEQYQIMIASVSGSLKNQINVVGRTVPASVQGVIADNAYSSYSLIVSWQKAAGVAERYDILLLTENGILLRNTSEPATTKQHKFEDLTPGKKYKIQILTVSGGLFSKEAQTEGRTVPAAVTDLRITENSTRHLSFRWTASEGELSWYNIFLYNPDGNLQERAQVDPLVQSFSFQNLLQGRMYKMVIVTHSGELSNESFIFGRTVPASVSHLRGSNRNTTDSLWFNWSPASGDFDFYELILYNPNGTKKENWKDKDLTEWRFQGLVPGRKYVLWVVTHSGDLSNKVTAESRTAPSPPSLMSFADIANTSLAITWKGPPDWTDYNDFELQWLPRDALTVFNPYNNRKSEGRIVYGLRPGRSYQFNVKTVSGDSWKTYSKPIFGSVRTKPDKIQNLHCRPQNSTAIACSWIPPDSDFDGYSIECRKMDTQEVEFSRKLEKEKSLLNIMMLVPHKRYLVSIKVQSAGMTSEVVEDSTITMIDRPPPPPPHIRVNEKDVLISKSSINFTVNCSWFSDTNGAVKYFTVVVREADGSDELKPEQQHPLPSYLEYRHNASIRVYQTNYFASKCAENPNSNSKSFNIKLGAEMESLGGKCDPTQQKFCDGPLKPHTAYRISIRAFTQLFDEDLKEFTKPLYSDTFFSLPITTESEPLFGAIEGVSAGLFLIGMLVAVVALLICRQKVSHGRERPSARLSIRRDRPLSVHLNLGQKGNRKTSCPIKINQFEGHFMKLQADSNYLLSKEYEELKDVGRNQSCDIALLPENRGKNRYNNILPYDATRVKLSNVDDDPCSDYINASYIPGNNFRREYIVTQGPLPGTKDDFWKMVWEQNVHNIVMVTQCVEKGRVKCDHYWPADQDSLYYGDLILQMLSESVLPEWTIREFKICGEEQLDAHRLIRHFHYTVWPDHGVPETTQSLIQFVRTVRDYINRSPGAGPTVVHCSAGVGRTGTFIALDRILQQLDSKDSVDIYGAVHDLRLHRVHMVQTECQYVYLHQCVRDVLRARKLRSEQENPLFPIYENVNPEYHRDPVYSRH", "experiment": "HPTP-β inhibition (IC50)", "assay_type": "biochemical", "conditions": "read-out: HPTPβ IC50"}, "[1]": {"tested_on": "patients with diabetic macular edema", "experiment": "Best corrected visual acuity (letters) in diabetic macular edema patients given the disclosed compound subcutaneously plus intravitreal anti-VEGF agent", "assay_type": "in vivo, human", "conditions": "5 mg s.c. twice daily 28 days, then ranibizumab or aflibercept intravitreal; 14-28 days post anti-VEGF (FIG. 4)", "procedure": "The disclosed Figures represent a control or baseline study used as a benchmark for determining the effectiveness of the disclosed methods for treating ocular diseases (FIGS. 1 and 3) and studies directed to the disclosed methods. Described herein below, four patients with visual acuity loss due to diabetic macular edema (central retinal thickness [CRT] of more than 325 microns and best corrected visual acuity less than 70 letters) were treated with subcutaneous injections of 5 mg of the disclosed compound twice a day for 28 days and then observed for an additional two months (days 28 through 84). At any time during the course of the study, investigators could administer additional therapy consisting of intravitreal injection of an anti-VEGF agent, for example, ranibizumab, bevacizumab and/or aflibercept if considered by the investigator to be medically necessary. Retinal thickness as measured by ocular coherence tomography and best corrected visual acuity as measured by a standard vision test were assessed at regular intervals during the 28 day active treatment phase and through the 2 month post-treatment observation phase, (Screening, Day 1 [baseline], Day 7, Day 14, Day 21, Day 28, Day 42, Day 56 and Day 84). The main efficacy outcomes for the study were change in CRT and visual acuity over time with treatment. […]"}, "[2]": {"tested_on": "patients with diabetic macular edema", "experiment": "Central Foveal Thickness by ocular coherence tomography in diabetic macular edema patients given the disclosed compound subcutaneously plus intravitreal anti-VEGF agent", "assay_type": "in vivo, human", "procedure": "The disclosed Figures represent a control or baseline study used as a benchmark for determining the effectiveness of the disclosed methods for treating ocular diseases (FIGS. 1 and 3) and studies directed to the disclosed methods. Described herein below, four patients with visual acuity loss due to diabetic macular edema (central retinal thickness [CRT] of more than 325 microns and best corrected visual acuity less than 70 letters) were treated with subcutaneous injections of 5 mg of the disclosed compound twice a day for 28 days and then observed for an additional two months (days 28 through 84). At any time during the course of the study, investigators could administer additional therapy consisting of intravitreal injection of an anti-VEGF agent, for example, ranibizumab, bevacizumab and/or aflibercept if considered by the investigator to be medically necessary. Retinal thickness as measured by ocular coherence tomography and best corrected visual acuity as measured by a standard vision test were assessed at regular intervals during the 28 day active treatment phase and through the 2 month post-treatment observation phase, (Screening, Day 1 [baseline], Day 7, Day 14, Day 21, Day 28, Day 42, Day 56 and Day 84). The main efficacy outcomes for the study were change in CRT and visual acuity over time with treatment. FIG. 2 depicts the results of a study wherein 4 patients received 5 mg of the disclosed compound subcutaneously twice daily for 28 days and subsequently were treated in one or both eyes (7 eyes total) with either ranibizumab (0.3 or 0.5 mg) or aflibercept (2 mg) by intravitreal injection at the discretion of the study investigator. […] The mean change in Central Foveal Thickness was −289 μm, approximately double the reduction seen 7 days to one month after ranibizumab injection in the benchmark study as depicted in FIG. 1. FIG. 5 represents the results of a single patient. The eye having the greater Central Foveal Thickness is chosen as the Study Eye. The patient from day one was given 5 mg of the disclosed compound subcutaneously twice daily. At week 3 (21 days, indicated by arrow) the fellow eye is treated with 0.5 mg of ranibizumab. At week 6 (42 days, indicated by arrow) the treated eye is treated with 0.5 mg of ranibizumab. […] Without wishing to be limited by theory, it is believed that when the fellow eye is treated with an injection of 0.5 mg of ranibizumab, the ranibizumab enters the study eye systemically. […] At week 6, the study eye is treated with an intravitreal injection of 0.5 mg of ranibizumab. As depicted in FIG. 5, by week 8, there is an overall reduction in CFT of approximately 690 μm, wherein the CFT of the subject eye is approximately 180 μm. Although the Fellow Eye began with less CFT than the study eye, nevertheless, treatment with ranibizumab at week 3 (day 21) produced a change in CFT of approximately 430 μm. […] FIG. 6 represents the results of a single patient. The eye having the greater Central Foveal Thickness is chosen as the Treated Eye (Study Eye). The patient from day one was given 5 mg of the disclosed compound subcutaneously twice daily. At week 3 (21 days, indicated by arrow) the fellow eye is rescued with 2 mg of aflibercept. […] At week 6 (42 days, indicated by arrow) the treated eye is rescued with 2 mg of aflibercept. […] The disclosed Figures represent a control or baseline study used as a benchmark for determining the effectiveness of the disclosed methods for treating ocular diseases (FIGS. 1 and 3) and studies directed to the disclosed methods. Described herein below, four patients with visual acuity loss due to diabetic macular edema (central retinal thickness [CRT] of more than 325 microns and best corrected visual acuity less than 70 letters) were treated with subcutaneous injections of 5 mg of the disclosed compound twice a day for 28 days and then observed for an additional two months (days 28 through 84). […]"}, "[3]": {"conditions": "single patient (FIG. 5), 5 mg s.c. twice daily, study eye given 0.5 mg ranibizumab at week 6"}, "[4]": {"conditions": "single patient, aflibercept protocol (FIG. 6)"}}, "note": "pIC50: −log10 of the molar value. Where “and” joins values, the source holds several entries; their conditions need not be identical. Identical values can stand only once. Entries after “also recorded” stand apart in the source; their conditions may differ.", "data": [{"smiles": "COC(=O)N[C@@H](Cc1ccccc1)C(=O)N[C@@H](Cc1ccc(NS(=O)(=O)O)cc1)c1nc(-c2ccccc2)cs1", "note": "[AA21, 4-{(S)-2-[(S)-2-(Methoxycarbonylamino)-3-phenylpropanamido]-2-(4-phenylthiazol-2-yl)ethyl}phenylsulfamic acid]", "values": [{"measurement": "pIC50", "setting": "HPTP-β", "value": "> 11.70"}]}, {"smiles": "COC(=O)N[C@@H](Cc1ccccc1)C(=O)N[C@@H](Cc1ccc(NS(=O)(=O)O)cc1)c1csc(-c2cccs2)n1", "note": "[the disclosed compound, 4-{(S)-2-[(S)-2-(methoxycarbonylamino)-3-phenylpropanamido]-2-[2-(thiophen-2-yl)thiazol-4-yl]ethyl}phenylsulfamic acid]", "values": [{"measurement": "mean change in Visual Acuity", "setting": "[1]", "value": 9, "unit": "letters"}, {"measurement": "Central Foveal Reduction, individual patient eye", "setting": "[2]; 5 mg s.c. twice daily 28 days, then ranibizumab (0.3 or 0.5 mg) or aflibercept (2 mg) intravitreal, 14-28 days post anti-VEGF, 7 eyes (FIG. 2)", "value": "50-100 μm and 150-200 μm and 200-250 μm and 300-350 μm and 350-400 μm and 450-500 μm"}, {"measurement": "mean change in Central Foveal Thickness", "setting": "[2]; 5 mg s.c. twice daily 28 days, then ranibizumab or aflibercept intravitreal, 14-28 days post anti-VEGF, 7 eyes (FIG. 2)", "value": "−289", "unit": "μm"}, {"measurement": "CFT reduction relative to reduction after ranibizumab in benchmark study", "setting": "[2]; combination versus FIG. 1 benchmark", "value": "approximately double"}, {"measurement": "CFT of study eye at week 6", "setting": "[2]; single patient (FIG. 5), 5 mg s.c. twice daily, before ranibizumab to study eye", "value": "approximately 775 μm"}, {"measurement": "change in CFT, fellow eye, after ranibizumab at week 3", "setting": "[2]; single patient (FIG. 5), 5 mg s.c. twice daily, fellow eye given 0.5 mg ranibizumab at day 21, by week 4", "value": "approximately 430 μm and 350 μm"}, {"measurement": "reduction in CFT, study eye, day 21 to day 28", "setting": "[2]; single patient (FIG. 5), 5 mg s.c. twice daily, fellow eye given 0.5 mg ranibizumab at week 3", "value": "approximately 300 μm; also recorded: approximately 250 μm"}, {"measurement": "CFT of study eye at week 8", "setting": "[2]; [3]", "value": "approximately 180 μm; also recorded: approximately 225 μm"}, {"measurement": "overall reduction in CFT, study eye, by week 8", "setting": "[2]; [3]", "value": "approximately 690 μm; also recorded: approximately 500 μm"}, {"measurement": "CFT reduction, fellow eye, after rescue", "setting": "[2]; single patient (FIG. 6), 5 mg s.c. twice daily, fellow eye rescued with 2 mg aflibercept", "value": "approximately 400 μm"}, {"measurement": "CFT reduction, study eye, after rescue", "setting": "[2]; single patient (FIG. 6), 5 mg s.c. twice daily, study eye rescued with 2 mg aflibercept at week 6", "value": "approximately 310 μm; also recorded: approximately 300 μm"}, {"measurement": "reduction of CFT from onset of the study, non-treated eye", "setting": "[2]; [4]", "value": "~280", "unit": "μm"}, {"measurement": "reduction of CFT from onset of the study, study eye", "setting": "[2]; [4]", "value": "approximately 300 μm"}]}]}
